US7728003B2, “5-oxo-5,8-dihydro-pyrido-pyrimidines as inhibitors of c-fms kinase” (Janssen Pharmaceutica N.V., priority 2005, dated 2010)

Target: c-fms (Homo sapiens, UniProt P07333)
Experiment: c-fms autophosphorylation, fluorescence polarization competition immunoassay
Format: biochemical
Settings: 10 nM c-fms, 1 mM ATP; for inhibition at 0.1 µM: test concentration 0.1 μM, read-out: c-fms Autophosphorylation Percent Inhibition, % @ 0.1 μM; for inhibition at 1 µM: test concentration 1 μM, read-out: c-fms Autophosphorylation Percent Inhibition, % @ 1 μM; for IC50: average of three independent measurements
Description: The assay buffer used was 100 mM 4-(2-hydroxyethyl)piperazine 1-ethanesulfonic acid (HEPES), pH 7.5, 1 mM 1,4-dithio-DL-threitol (DTT), 0.01% (v/v) Tween-20. Compounds were diluted in assay buffer containing 4% dimethylsulfoxide (DMSO) just prior to the assay. To each well, 5 μL of compound were added followed by the addition of 3 μL of a mix containing 33 nM c-fms and 16.7 mM MgCl2 (Sigma) in assay buffer. The kinase reaction was initiated by adding 2 μL of 5 mM ATP (Sigma) in assay buffer. The final concentrations in the assay were 10 nM c-fms, 1 mM ATP, 5 mM MgCl2, 2% DMSO. Control reactions were ran in each plate: in positive and negative control wells, assay buffer (made 4% in DMSO) was substituted for the compound; in addition, positive control wells received 1.2 μL of 50 mM ethylenediaminetetraaceticacid (EDTA).
The plates were incubated at room temperature for 45 min. At the end of the incubation, the reaction was quenched with 1.2 μL of 50 mM EDTA (EDTA was not added to the positive control wells at this point; see above). Following a 5-min incubation, each well received 10 μL of a 1:1:3 mixture of anti-phosphotyrosine antibody, 10X, PTK green tracer, 10X (vortexed), FP dilution buffer, respectively (all from PanVera, cat. # P2837). The plate was covered, incubated for 30 min at room temperature and the fluorescence polarization was read on the Analyst. The instrument settings were: 485 nm excitation filter; 530 nm emission filter; Z height: middle of well; G factor: 0.93.
The percent inhibition is shown in Table 1 at the indicated test concentration. The IC50 shown in Table 2 are averages of three independent measurements.

c-fms, sequence (P07333 20-972): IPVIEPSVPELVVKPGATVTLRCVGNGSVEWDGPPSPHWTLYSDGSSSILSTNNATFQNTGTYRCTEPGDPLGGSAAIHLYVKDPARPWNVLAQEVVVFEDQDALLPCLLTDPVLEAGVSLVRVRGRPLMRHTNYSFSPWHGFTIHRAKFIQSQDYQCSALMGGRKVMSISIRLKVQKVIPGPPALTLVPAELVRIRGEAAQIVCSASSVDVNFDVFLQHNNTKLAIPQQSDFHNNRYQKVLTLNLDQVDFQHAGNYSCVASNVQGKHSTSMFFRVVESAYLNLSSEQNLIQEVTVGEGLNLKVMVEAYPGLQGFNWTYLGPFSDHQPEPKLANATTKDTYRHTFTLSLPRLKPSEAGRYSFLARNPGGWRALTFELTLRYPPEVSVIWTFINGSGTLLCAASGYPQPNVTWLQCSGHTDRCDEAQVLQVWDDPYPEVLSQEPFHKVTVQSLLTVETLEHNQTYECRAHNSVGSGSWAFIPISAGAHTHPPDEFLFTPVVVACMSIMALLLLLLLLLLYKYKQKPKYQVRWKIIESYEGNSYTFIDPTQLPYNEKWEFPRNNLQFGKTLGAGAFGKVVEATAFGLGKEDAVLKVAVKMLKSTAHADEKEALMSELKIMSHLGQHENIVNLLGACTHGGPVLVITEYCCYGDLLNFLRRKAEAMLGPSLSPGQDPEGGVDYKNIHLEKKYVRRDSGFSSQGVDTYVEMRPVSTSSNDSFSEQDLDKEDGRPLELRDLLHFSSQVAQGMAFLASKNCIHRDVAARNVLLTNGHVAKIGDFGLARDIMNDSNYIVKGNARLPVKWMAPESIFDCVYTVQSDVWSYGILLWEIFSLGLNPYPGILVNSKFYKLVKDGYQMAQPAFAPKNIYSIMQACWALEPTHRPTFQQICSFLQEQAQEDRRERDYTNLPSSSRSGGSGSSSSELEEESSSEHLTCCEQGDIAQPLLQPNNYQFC

Row | Compound | inhibition at 0.1 µM | inhibition at 1 µM | IC50
1 | CN1CCN(CCCNc2ncc3c(=O)c(C(N)=O)cn(-c4ccc5c(c4)CCC5)c3n2)CC1 [Cpd 1, 8-Indan-5-yl-2-[4-(4-methyl-piperazin-1-yl)-propylamino]-5-oxo-5,8-dihydro-pyrido[2,3-d]pyrimidine-6-carboxylic acid amide] | 24% | 69.1% | 
2 | NC(=O)c1cn(-c2ccc3c(c2)CCC3)c2nc(NCCN3CCCCC3)ncc2c1=O [Cpd 2, 8-Indan-5-yl-5-oxo-2-(2-piperidin-1-yl-ethylamino)-5,8-dihydro-pyrido[2,3-d]pyrimidine-6-carboxylic acid amide] | 15% | 20% | 
3 | NC(=O)c1cn(-c2ccc3c(c2)CCC3)c2nc(NCCCn3ccnc3)ncc2c1=O [Cpd 3, 2-(3-Imidazol-1-yl-propylamino)-8-indan-5-yl-5-oxo-5,8-dihydro-pyrido[2,3-d]pyrimidine-6-carboxylic acid amide] |  |  | 2300 nM
4 | NC(=O)c1cn(-c2ccc3c(c2)CCC3)c2nc(NCCN3CCOCC3)ncc2c1=O [Cpd 4, 8-Indan-5-yl-2-(2-morpholin-4-yl-ethylamino)-5-oxo-5,8-dihydro-pyrido[2,3-d]pyrimidine-6-carboxylic acid amide] |  |  | 3300 nM
5 | NC(=O)c1cn(-c2ccc3c(c2)CCC3)c2nc(NCCCN3CCOCC3)ncc2c1=O [Cpd 5] |  |  | 2600 nM
6 | NC(=O)c1cn(-c2ccc3c(c2)CCC3)c2nc(NCCCN3CCCC3=O)ncc2c1=O [Cpd 8, 8-Indan-5-yl-5-oxo-2-[3-(2-oxo-pyrrolidin-1-yl)-propylamino]-5,8-dihydro-pyrido[2,3-d]pyrimidine-6-carboxylic acid amide] | 15% | 46% | 
7 | NC(=O)c1cn(-c2ccc3c(c2)CCC3)c2nc(NCCCN3CCCC3)ncc2c1=O [Cpd 9, 8-Indan-5-yl-5-oxo-2-(3-pyrrolidin-1-yl-propylamino)-5,8-dihydro-pyrido[2,3-d]pyrimidine-6-carboxylic acid amide] | 16% | 45% | 
8 | COc1cc(CNc2ncc3c(=O)c(C(N)=O)cn(-c4ccc5c(c4)CCC5)c3n2)cc(OC)c1 [Cpd 11, 2-(3,5-Dimethoxy-benzylamino)-8-indan-5-yl-5-oxo-5,8-dihydro-pyrido[2,3-d]pyrimidine-6-carboxylic acid amide] | 0% | 50% | 
9 | CNC(=O)c1cn(-c2ccc3c(c2)CCC3)c2nc(NCCCN3CCOCC3)ncc2c1=O [Cpd 13, 8-Indan-5-yl-2-(3-morpholin-4-yl-propylamino)-5-oxo-5,8-dihydro-pyrido[2,3-d]pyrimidine-6-carboxylic acid methylamide] | 7% | 27% | 
10 | CNC(=O)c1cn(-c2ccc3c(c2)CCC3)c2nc(NCCCN3CCCC3=O)ncc2c1=O [Cpd 14, 8-Indan-5-yl-5-oxo-2-[3-(2-oxo-pyrrolidin-1-yl)-propylamino]-5,8-dihydro-pyrido[2,3-d]pyrimidine-6-carboxylic acid methylamide] | 5% | 24% | 
11 | CNC(=O)c1cn(-c2ccc3c(c2)CCC3)c2nc(NCCCN3CCN(C)CC3)ncc2c1=O [Cpd 15, 8-Indan-5-yl-2-[3-(4-methyl-piperazin-1-yl)-propylamino]-5-oxo-5,8-dihydro-pyrido[2,3-d]pyrimidine-6-carboxylic acid methylamide] | 8% | 29% | 
12 | CNC(=O)c1cn(-c2ccc3c(c2)CCC3)c2nc(NCCc3ccc(OC)cc3)ncc2c1=O [Cpd 17, 8-Indan-5-yl-2-[2-(4-methoxy-phenyl)-ethylamino]-5-oxo-5,8-dihydro-pyrido[2,3-d]pyrimidine-6-carboxylic acid methylamide] | 15% | 36% | 
13 | CNC(=O)c1cn(-c2ccc3c(c2)CCC3)c2nc(NCCN3CCOCC3)ncc2c1=O [Cpd 18, 8-Indan-5-yl-2-(2-morpholin-4-yl-ethylamino)-5-oxo-5,8-dihydro-pyrido[2,3-d]pyrimidine-6-carboxylic acid methylamide] | 12% | 35% | 
14 | CONC(=O)c1cn(-c2ccc3c(c2)CCC3)c2nc(NCCc3ccc(OC)cc3)ncc2c1=O [Cpd 24, 8-Indan-5-yl-2-[2-(4-methoxy-phenyl)-ethylamino]-5-oxo-5,8-dihydro-pyrido[2,3-d]pyrimidine-6-carboxylic acid methoxy-amide] | 52% | 59% | 
15 | CONC(=O)c1cn(-c2ccc3c(c2)CCC3)c2nc(NCCN3CCCCC3)ncc2c1=O [Cpd 25, 8-Indan-5-yl-5-oxo-2-(2-piperidin-1-yl-ethylamino)-5,8-dihydro-pyrido[2,3-d]pyrimidine-6-carboxylic acid methoxy-amide] | 6% | 30% | 
16 | CONC(=O)c1cn(-c2ccc3c(c2)CCC3)c2nc(NCc3cc(OC)cc(OC)c3)ncc2c1=O [Cpd 27, 2-(3,5-Dimethoxy-benzylamino)-8-indan-5-yl-5-oxo-5,8-dihydro-pyrido[2,3-d]pyrimidine-6-carboxylic acid methoxy-amide] | 15% | 41% | 

The remaining lines, values ahead:

Row | inhibition at 0.1 µM | inhibition at 1 µM | IC50 | Compound
17 |  |  | 7100 nM | CN(C)CCCNc1ncc2c(=O)c(C(N)=O)cn(-c3ccc4c(c3)CCC4)c2n1 [Cpd 6, 2-(3-Dimethylamino-propylamino)-8-indan-5-yl-5-oxo-5,8-dihydro-pyrido[2,3-d]pyrimidine-6-carboxylic acid amide]
18 | 17% | 43% |  | COCCCNc1ncc2c(=O)c(C(N)=O)cn(-c3ccc4c(c3)CCC4)c2n1 [Cpd 7, 8-Indan-5-yl-2-(3-methoxy-propylamino)-5-oxo-5,8-dihydro-pyrido[2,3-d]pyrimidine-6-carboxylic acid amide]
19 | 16% | 41% |  | COCCNc1ncc2c(=O)c(C(N)=O)cn(-c3ccc4c(c3)CCC4)c2n1 [Cpd 10, 8-Indan-5-yl-2-(2-methoxy-ethylamino)-5-oxo-5,8-dihydro-pyrido[2,3-d]pyrimidine-6-carboxylic acid amide]
20 | 2% | 13% |  | CNC(=O)c1cn(-c2ccc3c(c2)CCC3)c2nc(NCCCN(C)C)ncc2c1=O [Cpd 12, 2-(3-Dimethylamino-propylamino)-8-indan-5-yl-5-oxo-5,8-dihydro-pyrido[2,3-d]pyrimidine-6-carboxylic acid methylamide]
21 | 12% | 39% |  | CNC(=O)c1cn(-c2ccc3c(c2)CCC3)c2nc(NCCOC)ncc2c1=O [Cpd 16, 8-Indan-5-yl-2-(2-methoxy-ethylamino)-5-oxo-5,8-dihydro-pyrido[2,3-d]pyrimidine-6-carboxylic acid methylamide]
22 | 36% | 70% |  | CONC(=O)c1cn(-c2ccc3c(c2)CCC3)c2nc(NCCCn3ccnc3)ncc2c1=O [Cpd 19, 2-(3-Imidazol-1-yl-propylamino)-8-indan-5-yl-5-oxo-5,8-dihydro-pyrido[2,3-d]pyrimidine-6-carboxylic acid methoxy-amide]
23 | 20% | 52% |  | CONC(=O)c1cn(-c2ccc3c(c2)CCC3)c2nc(NCCCN(C)C)ncc2c1=O [Cpd 20, 2-(3-Dimethylamino-propylamino)-8-indan-5-yl-5-oxo-5,8-dihydro-pyrido[2,3-d]pyrimidine-6-carboxylic acid methoxy-amide]
24 | 50% | 82% |  | COCCCNc1ncc2c(=O)c(C(=O)NOC)cn(-c3ccc4c(c3)CCC4)c2n1 [Cpd 21, 8-Indan-5-yl-2-(3-methoxy-propylamino)-5-oxo-5,8-dihydro-pyrido[2,3-d]pyrimidine-6-carboxylic acid methoxy-amide]
25 | 40% | 72% |  | CONC(=O)c1cn(-c2ccc3c(c2)CCC3)c2nc(NCCCN3CCCC3=O)ncc2c1=O [Cpd 22, 8-Indan-5-yl-5-oxo-2-[3-(2-oxo-pyrrolidin-1-yl)-propylamino]-5,8-dihydro-pyrido[2,3-d]pyrimidine-6-carboxylic acid methoxy-amide]
26 | 51% | 65% |  | COCCNc1ncc2c(=O)c(C(=O)NOC)cn(-c3ccc4c(c3)CCC4)c2n1 [Cpd 23, 8-Indan-5-yl-2-(2-methoxy-ethylamino)-5-oxo-5,8-dihydro-pyrido[2,3-d]pyrimidine-6-carboxylic acid methoxy-amide]
27 | 25% | 54% |  | CONC(=O)c1cn(-c2ccc3c(c2)CCC3)c2nc(NCCN3CCOCC3)ncc2c1=O [Cpd 26, 8-Indan-5-yl-2-(2-morpholin-4-yl-ethylamino)-5-oxo-5,8-dihydro-pyrido[2,3-d]pyrimidine-6-carboxylic acid methoxy-amide]
